Data reported in US10752913B2, “Selectable marker genes” (Dow AgroSciences LLC, priority 2006, dated 2020).

Columns and labels:
Type in all cases: cell-based
[1] = system: NT-1 tobacco cells transformed with pDAB3778 (DSM-2); assay: Tobacco cell culture transformation, selection frequency; conditions: second experiment
Protocol: Four days prior to transformation, a 1 week old NT-1 tobacco suspension, which was being subcultured every 7 days, was subcultured to fresh medium by adding 2 ml of the NT-1 culture or 1 ml of packed cells into 40 ml NT-1 B media. The subcultured suspension was maintained in the dark at 25±1° C. on a shaker at 125 rpm.
A 50% glycerol stock of Agrobacterium tumefaciens [strain LBA4404] harboring a binary vector of interest was used to initiate a liquid overnight culture by adding 20, 100, or […] to 30 ml YEP liquid (10 g/L yeast extract, 10 g/L Peptone, 5 g/L NaCl, 0-10 g/L Sucrose) containing 50-100 mg/L spectinomycin. The bacterial culture was incubated in the dark at 28° C. in an incubator shaker at 150-250 rpm until the OD600 was 1.5±0.2. This took approximately 18-20 hrs.
For each vector tested, 20-70 mL of 4-day old suspension cells were transferred into a sterile vessel, to which 500-1750 μl of Agrobacterium suspension at the proper OD was added. To ensure a uniform mixture was achieved, the cells were pipetted up and down 5 times with a 10 ml wide-bore pipet. The uniform suspension was then drawn up into a 25 ml barrel of a repeat pipetter and 250 μl of the suspension was dispensed per well into 24-well plates, continuing until the suspension was exhausted. The well plates were wrapped in parafilm and cultured in the dark at 25±1° C. without shaking for a 3 day co-cultivation.
Following the co-cultivation, all excess liquid was removed from the individual wells with a 1 mL pipet tip, and remaining cells were resuspended in 1 ml NTC liquid (NT-1 B medium containing 500 mg/L carbenicillin, added after autoclaving). The contents of an individual well were dispersed across the entire surface of 100×25 mm selection plates using disposable transfer pipets. Selection media consisted of NTC media solidified with 8 g/l TC agar supplemented with 7.5 to 15 mg/L bialaphos or technical grade glufosinate ammonium, added after autoclaving. All selection plates, left unwrapped, were maintained in the dark at 28° C.
Putative transformants appeared as small clusters of callus on a background of dead, non-transformed cells. Calli were isolated approximately 2-6 weeks post-transformation. Each callus isolate was transferred to its own 60×20 mm plate containing the same selection medium and allowed to grow for approximately 2 weeks before being submitted for analysis.
A side-by-side experiment comparing DSM-2 (v2) with PAT was completed. In the study, 100% of the PAT selection plates produced at least one PCR positive isolate on 10 mg/L bialaphos media, whereas 79% of the DSM-2 (v2) selection plates produced at least one PCR positive isolate.
In a second experiment, DSM-2 (v2)-treated tobacco cells were selected upon 7.5, 10, 12.5, or 15 mg/L bialaphos or technical grade glufosinate ammonium. Transformation frequencies (% of selection plates producing at least one callus) following verification by coding region PCR are listed in the table below.

[2] = system: Escherichia coli BL21—Star (DE3) expressing DSM-2 (v2) (pDAB4412); assay: Complementation of cell growth on glufosinate, pET expression
From the text: A pET28a(+) expression plasmid containing PAT (v3) was constructed as a positive control. PAT (v3) was cloned as an NcoI-SacI fragment into corresponding restriction sites of pDAB779. Positive clones containing the PAT (v3) gene fragment were verified via restriction enzyme digestion. This construct was labeled as pDAB4434.
The plasmids, pDAB4434, pDAB4412, and an empty pET vector (control) were transformed into Escherichia coli BL21—Star (DE3) bacterial cells. Expression cultures were initiated with 10-200 freshly transformed colonies into 250 mL LB medium containing 50 μg/ml antibiotic and 75 μM IPTG (isopropyl-[…]). The cultures were grown at 28° C. for 24 hours at 180-200 rpm. Five microliters of the culture was inoculated onto a complex media control and minimal media containing incrementally increasing concentrations of glufosinate and 20 μM IPTG. The cultures were dispersed evenly over the plates and incubated at 28° C. for 24 hours.

[3] = system: Escherichia coli BL21—Star (DE3); assay: Bacterial growth on minimal media containing glufosinate (BASTA); conditions: only strain of five tested
Protocol: Selected cell lines of Escherichia coli and Agrobacterium tumefaciens were inoculated on minimal media containing incrementally increasing concentrations of Glufosinate (BASTA). The cell lines; BL21—Star (DE3), Top10, DH5═, Agrobacterium tumefaciens C58, and Agrobacterium tumefaciens LBA4404s were initially grown up on complex media. The Escherichia coli strains were grown in LB and the Agrobacterium tumefaciens strains were grown in YEP. Five microliters of bacterial culture was inoculated and dispersed evenly onto minimal media plates containing various concentrations of glufosinate. The concentrations consisted of 0 μg/ml, 250 μg/ml, 500 μg/ml, 1000 μg/ml, 2000 μg/ml, and 4000 μg/ml of BASTA. In addition, the bacterial strains were inoculated onto a plate of complex media as a control—Agrobacterium tumefaciens strains were inoculated on YEP agar plates, and Escherichia coli strains were inoculated on LB agar plates. The plates containing the Escherichia coli strains were incubated at 37° C. for 24 hours. The plates containing the Agrobacterium tumefaciens strains were incubate at 25° C. for 48 hours. […] Table 7 illustrates the capability of the various strains to grow on minimal media containing glufosinate.

[4] = system: Escherichia coli BL21—Star (DE3) with 3264 (CsVMV promoter//DSM-2); assay: Complementation on glufosinate with plant/viral promoters; conditions: DSM-2 driven by CsVMV promoter
Protocol: (§1) Plasmid constructs in which the DSM-2 (v2) and PAT gene coding sequences were expressed, under either the viral promoters CsVMV or the plant promoter AtUbi10, were assayed for complementation on minimal media containing glufosinate. The plasmids 3778 (Rb7 MARv3//AtUbi10 promoter//DSM-2 (v2)//Atu Orf 1 3′UTR), 3779 (Rb7 MARv3//AtUbi10 promoter//PAT//Atu Orf 1 3′UTR), 3264 (CsVMV promoter//DSM-2//Atu Orf24 3′UTR), 3037 (CsVMV promoter//PAT//Atu Orf 25/26 3′UTR), and 770 (control plasmid containing CsVMV promoter//GUS v3//Atu Orf 24 3′UTR) were transformed into Escherichia coli BL21—Star (DE3) and grown up in complex media. Five microliters of the cultures were plated on minimal media containing increasing concentrations of Glufosinate and incubated at 37° C. for 48 hours.

[5] = system: Escherichia coli BL21—Star (DE3) with 3778 (AtUbi10 promoter//DSM-2 (v2)); assay: as above; conditions: DSM-2 driven by At Ubi10 promoter
Protocol: as §1

Row | Compound | Transformation frequencies (% of selection plates producing at least one callus) following verification by coding region PCR ([1]; 7.5 mg/L in selection medium) [%] | Transformation frequencies (% of selection plates producing at least one callus) following verification by coding region PCR ([1]; 10 mg/L in selection medium) [%] | Transformation frequencies (% of selection plates producing at least one callus) following verification by coding region PCR ([1]; 12.5 mg/L in selection medium) [%] | Transformation frequencies (% of selection plates producing at least one callus) following verification by coding region PCR ([1]; 15 mg/L in selection medium) [%] | glufosinate concentration on minimal media to which DSM-2 expression complemented resistance [2] [µg/mL] | inhibition of growth on minimal media [3] | glufosinate concentration in minimal media to which resistance was provided [4] [µg/mL] | glufosinate concentration in minimal media to which resistance was provided [5] [µg/mL]
1 | C[C@H](NC(=O)[C@H](C)NC(=O)[C@@H](N)CCP(C)(=O)O)C(=O)O [Bialaphos] | 38.9 | 44.4 | 38.9 | 22.2 |  |  |  | 
2 | CP(=O)(O)CCC(N)C(=O)O (stereo not drawn) [glufosinate] | 55.6 | 50.0 | 44.4 | 38.9 | 400 | substantially inhibited | 200 | 200
